Experimental data reported in patent US11945822B2, “Pyrazolo-triazine and/or pyrazolo-pxrimidine derivatives as selective inhibitor of cyclin dependent kinase” (QURIENT CO., LTD., priority 2018, dated 2024).

target: T1, CDK7/Cyclin H/MNAT1 (Homo sapiens, UniProt P50613); assay: Enzymatic assay for CDK7 (FRET based LANCE Ultra kinase assay); assay type: biochemical; conditions: CDK7 over CDK1
T1 construct: purchased Invitrogen PR6749B
How it was run: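 LANCE Ultra TR-FRET kinase assay using a ULight-labeled peptide substrate and a Eu-labeled anti-phospho antibody, with ATP at its Km. Purified CDK/cyclin complex was added to compound after brief centrifugation.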

T1 sequence (P50613 whole entry): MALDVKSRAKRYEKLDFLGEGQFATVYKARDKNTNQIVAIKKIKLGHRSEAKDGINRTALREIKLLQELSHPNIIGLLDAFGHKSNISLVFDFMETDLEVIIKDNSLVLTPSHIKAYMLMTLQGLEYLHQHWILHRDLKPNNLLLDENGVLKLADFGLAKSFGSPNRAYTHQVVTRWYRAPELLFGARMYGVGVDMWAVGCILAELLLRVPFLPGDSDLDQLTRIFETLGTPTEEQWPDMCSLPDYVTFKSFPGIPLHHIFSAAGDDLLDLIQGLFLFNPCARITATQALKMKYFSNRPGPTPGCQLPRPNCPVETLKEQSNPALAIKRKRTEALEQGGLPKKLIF
T1 sequence (P51946 whole entry partner): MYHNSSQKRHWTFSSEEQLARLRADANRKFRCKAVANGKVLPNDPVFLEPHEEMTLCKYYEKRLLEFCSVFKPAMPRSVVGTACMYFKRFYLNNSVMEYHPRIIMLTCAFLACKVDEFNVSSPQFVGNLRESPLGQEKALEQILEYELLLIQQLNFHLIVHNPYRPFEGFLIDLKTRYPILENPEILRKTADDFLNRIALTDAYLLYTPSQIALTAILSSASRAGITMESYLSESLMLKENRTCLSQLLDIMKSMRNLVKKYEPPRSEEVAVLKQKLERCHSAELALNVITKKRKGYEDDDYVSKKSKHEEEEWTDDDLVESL
T1 sequence (P51948 whole entry partner): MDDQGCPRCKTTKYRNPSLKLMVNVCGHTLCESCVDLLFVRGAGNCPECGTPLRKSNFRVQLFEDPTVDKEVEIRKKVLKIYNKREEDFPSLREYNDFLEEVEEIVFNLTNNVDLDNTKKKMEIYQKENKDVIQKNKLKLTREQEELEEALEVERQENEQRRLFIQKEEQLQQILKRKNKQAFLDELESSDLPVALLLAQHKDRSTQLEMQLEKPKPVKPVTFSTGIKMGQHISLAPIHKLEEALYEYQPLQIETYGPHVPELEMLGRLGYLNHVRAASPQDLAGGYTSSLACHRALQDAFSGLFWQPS

CDK1/CDK7: Selectivity of CDK7 inhibition over CDK1 inhibition	SMILES
A (A=greater than 200 fold)	CC(C)c1cnn2c(NCc3ccccc3-c3ccc4ccccc4n3)cc(N3CCC(N)CC3)nc12 [Compound 73]
A (A=greater than 200 fold)	CC(C)c1cnn2c(NCc3ccccc3-c3nccc4ccccc34)nc(N3CCC(N)CC3)nc12 [Compound 79]
A (A=greater than 200 fold)	CC(C)c1cnn2c(NCc3ccccc3-c3nccc4c(NC(=O)CCCN(C)C)cccc34)nc(N3CCC(N)CC3)nc12 [Compound 90]

same assay, conditions: CDK7 over CDK2

CDK2/CDK7: Selectivity of CDK7 inhibition over CDK2 inhibition	SMILES
A (A=greater than 200 fold)	CC(C)c1cnn2c(NCc3ccccc3-c3ccc4ccccc4n3)cc(N3CCC(N)CC3)nc12 [Compound 73]
A (A=greater than 200 fold)	CC(C)c1cnn2c(NCc3ccccc3-c3nccc4ccccc34)nc(N3CCC(N)CC3)nc12 [Compound 79]
A (A=greater than 200 fold)	CC(C)c1cnn2c(NCc3ccccc3-c3nccc4c(NC(=O)CCCN(C)C)cccc34)nc(N3CCC(N)CC3)nc12 [Compound 90]

same assay, conditions: CDK7 over CDK5

CDK5/CDK7: Selectivity of CDK7 inhibition over CDK5 inhibition	SMILES
A (A=greater than 200 fold)	CC(C)c1cnn2c(NCc3ccccc3-c3nccc4ccccc34)nc(N3CCC(N)CC3)nc12 [Compound 79]
A (A=greater than 200 fold)	CC(C)c1cnn2c(NCc3ccccc3-c3nccc4c(NC(=O)CCCN(C)C)cccc34)nc(N3CCC(N)CC3)nc12 [Compound 90]

SMILES	CDK5/CDK7: Selectivity of CDK7 inhibition over CDK5 inhibition
CC(C)c1cnn2c(NCc3ccccc3-c3ccc4ccccc4n3)cc(N3CCC(N)CC3)nc12 [Compound 73]	B (B=less than 200 fold, but greater than 20 fold)

same assay, conditions: read-out: CDK7 enzymatic activity (IC50 range)

IC50	SMILES
< 0.1 µM	CC(C)c1cnn2c(NCc3ccccc3-c3ccc4ccccc4n3)cc(N3CCC(N)CC3)nc12 [Compound 73]
< 0.1 µM	CC(C)c1cnn2c(NCc3ccccc3-c3nccc4ccccc34)nc(N3CCC(N)CC3)nc12 [Compound 79]
< 0.1 µM	CC(C)c1cnn2c(NCc3ccccc3-c3nccc4c(NC(=O)CCCN(C)C)cccc34)nc(N3CCC(N)CC3)nc12 [Compound 90]

target: T2, CDK2/Cyclin A (Homo sapiens, UniProt P24941); assay: Enzymatic assay for CDK2 (FRET based LANCE Ultra kinase assay); assay type: biochemical; conditions: read-out: CDK2 enzymatic activity (IC50 range)
T2 construct: purchased Invitrogen PV6290
How it was run: (§1)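 TR-FRET (LANCE Ultra) kinase assay at ATP Km, ULight-MBP peptide substrate (68 nM), 8-dose 4-fold compound series in DMSO. Enzymes: […]; 60 min at 23° C., stopped with EDTA plus Eu-anti-phospho-MBP antibody, read 665/615 nm after 60 min.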

IC50	SMILES
> 1 µM	CC(C)c1cnn2c(NCc3ccccc3-c3ccc4ccccc4n3)cc(N3CCC(N)CC3)nc12 [Compound 73]
> 1 µM	CC(C)c1cnn2c(NCc3ccccc3-c3nccc4ccccc34)nc(N3CCC(N)CC3)nc12 [Compound 79]
> 1 µM	CC(C)c1cnn2c(NCc3ccccc3-c3nccc4c(NC(=O)CCCN(C)C)cccc34)nc(N3CCC(N)CC3)nc12 [Compound 90]

target: T3, CDK5/p25 (Homo sapiens, UniProt Q00535); assay: Enzymatic assay for CDK5 (FRET based LANCE Ultra kinase assay); assay type: biochemical; conditions: read-out: CDK5 enzymatic activity (IC50 range)
T3 construct: purchased Invitrogen PR8543B
T3 sequence (Q00535 whole entry): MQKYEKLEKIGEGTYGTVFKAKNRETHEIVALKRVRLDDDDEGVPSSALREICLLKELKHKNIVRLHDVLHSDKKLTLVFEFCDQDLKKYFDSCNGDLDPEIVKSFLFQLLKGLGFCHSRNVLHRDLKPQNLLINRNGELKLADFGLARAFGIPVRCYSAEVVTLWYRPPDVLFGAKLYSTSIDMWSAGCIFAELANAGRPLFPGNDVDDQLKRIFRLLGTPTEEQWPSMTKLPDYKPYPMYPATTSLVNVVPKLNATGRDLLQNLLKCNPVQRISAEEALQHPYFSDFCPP
T3 sequence (Q15078 99-307 partner limits assumed): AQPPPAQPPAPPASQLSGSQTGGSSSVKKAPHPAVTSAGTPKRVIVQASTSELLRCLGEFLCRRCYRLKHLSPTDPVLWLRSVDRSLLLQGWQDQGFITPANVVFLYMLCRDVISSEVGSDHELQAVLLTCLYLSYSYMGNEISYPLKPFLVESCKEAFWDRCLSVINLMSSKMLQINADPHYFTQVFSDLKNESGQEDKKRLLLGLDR
How it was run: as §1

IC50	SMILES
0.1 to 1 µM	CC(C)c1cnn2c(NCc3ccccc3-c3ccc4ccccc4n3)cc(N3CCC(N)CC3)nc12 [Compound 73]
> 1 µM	CC(C)c1cnn2c(NCc3ccccc3-c3nccc4ccccc34)nc(N3CCC(N)CC3)nc12 [Compound 79]
> 1 µM	CC(C)c1cnn2c(NCc3ccccc3-c3nccc4c(NC(=O)CCCN(C)C)cccc34)nc(N3CCC(N)CC3)nc12 [Compound 90]

system: MOLT-4; assay: Cellular MOLT-4 viability assay (CellTiter-Glo, 72 hours); assay type: cell-based; conditions: Homo sapiens, MOLT4 viability assay
How it was run: (§2)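 Cells were plated at line-specific densities and exposed to compound for 72 hours at 37 °C, 5% CO2, with DMSO-only wells as control (final DMSO below 0.1%). Viability was measured by CellTiter-Glo luminescence in duplicate.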

IC50	SMILES
1 to 10 µM	CC(C)c1cnn2c(NCc3ccccc3-c3ccc4ccccc4n3)cc(N3CCC(N)CC3)nc12 [Compound 73]
> 10 µM	CC(C)c1cnn2c(NCc3ccccc3-c3nccc4ccccc34)nc(N3CCC(N)CC3)nc12 [Compound 79]
> 10 µM	CC(C)c1cnn2c(NCc3ccccc3-c3nccc4c(NC(=O)CCCN(C)C)cccc34)nc(N3CCC(N)CC3)nc12 [Compound 90]

system: MM.1S; assay: Cellular MM.1S viability assay (CellTiter-Glo, 72 hours); assay type: cell-based; conditions: Homo sapiens, MM1.S
How it was run: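 Cells seeded at 1×10^4/well (MM.1S), 5×10^3 (OVCAR-3) or 1×10^3 (A2780), grown in RPMI-1640 with 10% FBS. After 24 h, compound added at 0.0015–10 uM, final DMSO below 0.1%, for 72 h at 37° C. Viability read by CellTiter-Glo luminescence in duplicate, with curve fitting.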

IC50	SMILES
≤ 1 µM	CC(C)c1cnn2c(NCc3ccccc3-c3ccc4ccccc4n3)cc(N3CCC(N)CC3)nc12 [Compound 73]
1 to 10 µM	CC(C)c1cnn2c(NCc3ccccc3-c3nccc4ccccc34)nc(N3CCC(N)CC3)nc12 [Compound 79]
> 10 µM	CC(C)c1cnn2c(NCc3ccccc3-c3nccc4c(NC(=O)CCCN(C)C)cccc34)nc(N3CCC(N)CC3)nc12 [Compound 90]

target: T4, CDK1/Cyclin B (Homo sapiens, UniProt P06493); assay: Enzymatic assay for CDK1 (FRET based LANCE Ultra kinase assay); assay type: biochemical; conditions: read-out: CDK1 enzymatic activity (IC50 range)
T4 construct: purchased Invitrogen PR4768C
T4 sequence (P06493 whole entry): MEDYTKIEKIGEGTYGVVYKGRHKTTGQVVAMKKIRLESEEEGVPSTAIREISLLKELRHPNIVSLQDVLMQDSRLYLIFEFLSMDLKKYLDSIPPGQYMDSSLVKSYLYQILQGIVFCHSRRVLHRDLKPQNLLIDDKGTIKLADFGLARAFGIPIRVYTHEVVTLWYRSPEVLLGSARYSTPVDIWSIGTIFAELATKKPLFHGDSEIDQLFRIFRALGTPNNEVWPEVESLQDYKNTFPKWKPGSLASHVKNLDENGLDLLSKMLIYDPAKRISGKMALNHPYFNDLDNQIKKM
T4 sequence (P14635 whole entry partner): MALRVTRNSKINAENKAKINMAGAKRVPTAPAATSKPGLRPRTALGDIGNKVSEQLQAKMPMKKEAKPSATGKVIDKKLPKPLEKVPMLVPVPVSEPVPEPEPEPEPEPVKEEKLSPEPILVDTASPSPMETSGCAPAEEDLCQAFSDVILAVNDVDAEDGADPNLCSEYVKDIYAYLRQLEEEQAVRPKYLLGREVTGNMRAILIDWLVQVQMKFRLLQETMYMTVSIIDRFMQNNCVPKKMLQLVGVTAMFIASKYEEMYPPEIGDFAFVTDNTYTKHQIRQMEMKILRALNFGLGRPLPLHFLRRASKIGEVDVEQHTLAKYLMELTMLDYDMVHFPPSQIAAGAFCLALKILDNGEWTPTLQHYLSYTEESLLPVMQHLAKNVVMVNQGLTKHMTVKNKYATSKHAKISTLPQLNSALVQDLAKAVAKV
How it was run: as §1

IC50	SMILES
> 1 µM	CC(C)c1cnn2c(NCc3ccccc3-c3ccc4ccccc4n3)cc(N3CCC(N)CC3)nc12 [Compound 73]
> 1 µM	CC(C)c1cnn2c(NCc3ccccc3-c3nccc4ccccc34)nc(N3CCC(N)CC3)nc12 [Compound 79]
> 1 µM	CC(C)c1cnn2c(NCc3ccccc3-c3nccc4c(NC(=O)CCCN(C)C)cccc34)nc(N3CCC(N)CC3)nc12 [Compound 90]

system: HCT116; assay: Cellular HCT116 viability assay (CellTiter-Glo, 72 hours); assay type: cell-based; conditions: Homo sapiens, HCT-116
How it was run: as §2

IC50	SMILES
< 1 µM	CC(C)c1cnn2c(NCc3ccccc3-c3ccc4ccccc4n3)cc(N3CCC(N)CC3)nc12 [Compound 73]
1 to 10 µM	CC(C)c1cnn2c(NCc3ccccc3-c3nccc4c(NC(=O)CCCN(C)C)cccc34)nc(N3CCC(N)CC3)nc12 [Compound 90]

system: RPMI-8226; assay: Cellular RPMI-8226 viability assay (CellTiter-Glo, 72 hours); assay type: cell-based; conditions: Homo sapiens
How it was run: as §2

IC50	SMILES
1 to 10 µM	CC(C)c1cnn2c(NCc3ccccc3-c3ccc4ccccc4n3)cc(N3CCC(N)CC3)nc12 [Compound 73]
1 to 10 µM	CC(C)c1cnn2c(NCc3ccccc3-c3nccc4ccccc34)nc(N3CCC(N)CC3)nc12 [Compound 79]
1 to 10 µM	CC(C)c1cnn2c(NCc3ccccc3-c3nccc4c(NC(=O)CCCN(C)C)cccc34)nc(N3CCC(N)CC3)nc12 [Compound 90]

system: H460; assay: Cellular H460 viability assay (CellTiter-Glo, 72 hours); assay type: cell-based; conditions: Homo sapiens, NCI-H460
How it was run: as §2

IC50	SMILES
< 1 µM	CC(C)c1cnn2c(NCc3ccccc3-c3ccc4ccccc4n3)cc(N3CCC(N)CC3)nc12 [Compound 73]
1 to 10 µM	CC(C)c1cnn2c(NCc3ccccc3-c3nccc4ccccc34)nc(N3CCC(N)CC3)nc12 [Compound 79]
1 to 10 µM	CC(C)c1cnn2c(NCc3ccccc3-c3nccc4c(NC(=O)CCCN(C)C)cccc34)nc(N3CCC(N)CC3)nc12 [Compound 90]

system: MV4-11; assay: Cellular MV4-11 viability assay (CellTiter-Glo, 72 hours); assay type: cell-based; conditions: Homo sapiens
How it was run: as §2

IC50	SMILES
< 1 µM	CC(C)c1cnn2c(NCc3ccccc3-c3ccc4ccccc4n3)cc(N3CCC(N)CC3)nc12 [Compound 73]
1 to 10 µM	CC(C)c1cnn2c(NCc3ccccc3-c3nccc4ccccc34)nc(N3CCC(N)CC3)nc12 [Compound 79]
< 1 µM	CC(C)c1cnn2c(NCc3ccccc3-c3nccc4c(NC(=O)CCCN(C)C)cccc34)nc(N3CCC(N)CC3)nc12 [Compound 90]
